Consider 12 molecules from patent US20180237441A1, “Chemical Compounds” (GlaxoSmithKline Intellectual Property (No.2) Limited, priority 2015, published 2018).

Assay [1] deals with T1, PERK (Homo sapiens, UniProt Q9NZJ5).
T1 sequence (Q9NZJ5 30-1116): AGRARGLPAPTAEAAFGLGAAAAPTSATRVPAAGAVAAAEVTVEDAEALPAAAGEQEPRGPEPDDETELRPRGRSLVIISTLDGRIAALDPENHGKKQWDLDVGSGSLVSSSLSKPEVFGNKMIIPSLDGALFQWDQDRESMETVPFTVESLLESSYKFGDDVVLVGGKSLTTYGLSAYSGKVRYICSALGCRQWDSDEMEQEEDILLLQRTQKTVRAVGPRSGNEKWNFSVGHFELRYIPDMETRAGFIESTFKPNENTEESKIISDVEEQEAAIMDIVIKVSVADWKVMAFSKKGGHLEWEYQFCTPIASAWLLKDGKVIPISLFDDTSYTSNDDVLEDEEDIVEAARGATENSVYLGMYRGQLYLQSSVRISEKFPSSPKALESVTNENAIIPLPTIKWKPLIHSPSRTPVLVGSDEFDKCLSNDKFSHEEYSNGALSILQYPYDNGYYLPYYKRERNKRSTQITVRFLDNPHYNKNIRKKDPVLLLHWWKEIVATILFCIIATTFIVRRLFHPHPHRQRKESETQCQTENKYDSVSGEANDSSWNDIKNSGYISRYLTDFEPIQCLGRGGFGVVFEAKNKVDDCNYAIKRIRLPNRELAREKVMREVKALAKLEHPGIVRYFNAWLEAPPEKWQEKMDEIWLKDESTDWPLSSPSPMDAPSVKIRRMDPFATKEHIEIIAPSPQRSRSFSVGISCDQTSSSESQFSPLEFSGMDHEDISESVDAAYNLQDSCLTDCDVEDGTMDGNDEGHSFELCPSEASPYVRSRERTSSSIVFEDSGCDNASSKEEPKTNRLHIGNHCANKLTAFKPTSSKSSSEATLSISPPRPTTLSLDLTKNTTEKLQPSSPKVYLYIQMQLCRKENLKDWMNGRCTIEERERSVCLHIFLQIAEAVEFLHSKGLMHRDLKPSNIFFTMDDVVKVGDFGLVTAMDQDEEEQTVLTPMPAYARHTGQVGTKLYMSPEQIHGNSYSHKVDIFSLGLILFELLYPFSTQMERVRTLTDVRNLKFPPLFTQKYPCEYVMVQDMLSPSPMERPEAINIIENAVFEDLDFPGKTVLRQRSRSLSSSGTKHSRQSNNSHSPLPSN
The assay is described as follows: PERK enzyme assay (HTRF). As to conditions: PERK Enzyme (500 μM ATP) IC50; at least one experimental run; read-out: PERK Activity. In kind it is biochemical. Put shortly:
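HTRF read-out after 2 h of EDTA-quenched reactions, detecting phospho-eIF2α with Eu/APC reagents, gave IC50 values. Reaction: 0.75 nM GST-PERK, 30–60 min compound pre-incubation (max 1% DMSO), then 60 min with 40 nM biotin-eIF2α and 500 μM ATP, HEPES pH 7.5 buffer.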
(TR-FRET usually uses a lanthanide donor and a delayed reading to cut background.)

The subject of assay [2] is prion infected mice. To be noted: cited from earlier work.

In the case of `Cc1nc(N)c2c(-c3ccc(N4CC(c5c(F)ccc(F)c5F)N(C)C4=O)cc3F)cn(C)c2n1` (stereo not drawn) [Example 139, 1-(4-(4-amino-2,7-dimethyl-7H-pyrrolo[2,3-d]pyrimidin-5-yl)-3-fluorophenyl)-3-methyl-4-(2,3,6-trifluorophenyl)imidazolidin-2-one], the IC50 in assay [1] was in the range of 100 to 1000 nM.

With `CN1C(=O)N(c2ccc(-c3cn(C4CC4)c4ncnc(N)c34)c(F)c2)CC1c1cc(F)ccc1F` (stereo not drawn) [Example 144, 1-(4-(4-amino-7-cyclopropyl-7H-pyrrolo[2,3-d]pyrimidin-5-yl)-3-fluorophenyl)-4-(2,5-difluorophenyl)-3-methylimidazolidin-2-one], the IC50 in assay [1] is under 100 nM.

With `CN1C(=O)N(c2ccc(-c3cn(C)c4ncnc(N)c34)c(F)c2)CC1c1ccc2c(c1)CCO2` (stereo not drawn) [Example 147, 1-(4-(4-amino-7-methyl-7H-pyrrolo[2,3-d]pyrimidin-5-yl)-3-fluorophenyl)-4-(2,3-dihydrobenzofuran-5-yl)-3-methylimidazolidin-2-one], the IC50 in assay [1] was under 100 nM.

For `CN1C(=O)N(c2ccc(-c3cn(C4CC4)c4ncnc(N)c34)c(F)c2)CC1c1cccc(Cl)c1` (stereo not drawn) [Example 148, 1-(4-(4-amino-7-cyclopropyl-7H-pyrrolo[2,3-d]pyrimidin-5-yl)-3-fluorophenyl)-4-(3-chlorophenyl)-3-methylimidazolidin-2-one], the IC50 in assay [1] was under 100 nM.

Turning to `CN1C(=O)N(c2ccc(-c3cn(C4CC4)c4ncnc(N)c34)c(F)c2)CC1c1ccccc1` (stereo not drawn) [Example 149, 1-(4-(4-amino-7-cyclopropyl-7H-pyrrolo[2,3-d]pyrimidin-5-yl)-3-fluorophenyl)-3-methyl-4-phenylimidazolidin-2-one], in assay [1], the IC50 was under 100 nM.

Regarding `CN1C(=O)N(c2ccc(-c3cn(C)c4ncnc(N)c34)c(F)c2)CC1c1cc(F)c(F)cc1F` (stereo not drawn) [Example 156, 1-(4-(4-amino-7-methyl-7H-pyrrolo[2,3-d]pyrimidin-5-yl)-3-fluorophenyl)-3-methyl-4-(2,4,5-trifluorophenyl)imidazolidin-2-one], in assay [1], the IC50 was under 100 nM.

Regarding `CN1C(=O)N(c2ccc(-c3cn(C4CC4)c4ncnc(N)c34)c(F)c2)CC1c1cc(F)c(F)cc1F` (stereo not drawn) [Example 157, 1-(4-(4-amino-7-cyclopropyl-7H-pyrrolo[2,3-d]pyrimidin-5-yl)-3-fluorophenyl)-3-methyl-4-(2,4,5-trifluorophenyl)imidazolidin-2-one], in assay [1], the IC50 is under 100 nM.

`CN1C(=O)N(c2ccc(-c3cn(C4CC4)c4ncnc(N)c34)c(F)c2)CC1c1ccc(F)cc1` (stereo not drawn) [Example 162, 1-(4-(4-amino-7-cyclopropyl-7H-pyrrolo[2,3-d]pyrimidin-5-yl)-3-fluorophenyl)-4-(4-fluorophenyl)-3-methylimidazolidin-2-one]: in assay [1], the IC50 was under 100 nM.

As for `CN1C(=O)N(c2ccc(-c3cn(C4CC4)c4ncnc(N)c34)c(F)c2)CC1c1ccc(Cl)cc1` (stereo not drawn) [Example 167, 1-(4-(4-amino-7-cyclopropyl-7H-pyrrolo[2,3-d]pyrimidin-5-yl)-3-fluorophenyl)-4-(4-chlorophenyl)-3-methylimidazolidin-2-one], the IC50 in assay [1] was under 100 nM.

As to `CCN1C(=O)N(c2ccc(-c3cn(C4CC4)c4ncnc(N)c34)c(F)c2)CC1c1cc(F)cc(F)c1` (stereo not drawn) [Example 170, 1-(4-(4-amino-7-cyclopropyl-7H-pyrrolo[2,3-d]pyrimidin-5-yl)-3-fluorophenyl)-4-(3,5-difluorophenyl)-3-ethylimidazolidin-2-one], the IC50 in assay [1] was under 100 nM.

With `CN1C(=O)N(c2ccc(-c3cn(C4CC4)c4ncnc(N)c34)c(F)c2)CC1c1cc(F)cc(F)c1` (stereo not drawn) [Example 176, 1-(4-(4-amino-7-cyclopropyl-7H-pvrrolo[2,3-d]pyrimidin-5-yl)-3-fluorophenyl)-4-(3,5-difluorophenyl)-3-methylimidazolidin-2-one], in assay [1], the IC50 is under 100 nM.

Take `Cn1cc(-c2ccc3c(c2)CCN3C(=O)Cc2cccc(C(F)(F)F)c2)c2c(N)ncnc21` [GSK2606414, 7-methyl-5-(1-{[3-(trifluoromethyl)phenyl]acetyl}-2,3-dihydro-1H-indol-5-yl)-7H-pyrrolo[2,3-d]pyrimidin-4-amine]: the “neuroprotective effect and clinical signs of disease” value in assay [2] is “provide a neuroprotective effect and prevent clinical signs of disease”.
